Measured values reported in ChEMBL document CHEMBL5058645, “Data for DCP probe JNJ-6204” (2022).

Key:
[1] = biological target: Aurora kinase A (Homo sapiens) (UniProt O14965); assay: Aurora-A(h) Kinase panel; details: Compound concentration 1.0 uM, tested as the 2H-labelled form
[2] = biological target: Aurora kinase B (Homo sapiens) (UniProt Q96GD4); assay: Aurora-B(h) Kinase panel; details: Compound concentration 1.0 uM, tested as the 2H-labelled form
[3] = biological target: Tyrosine-protein kinase receptor UFO (Homo sapiens) (UniProt P30530); assay: Axl(h) Kinase panel; details: Compound concentration 1.0 uM, tested as the 2H-labelled form
[4] = biological target: Serine/threonine-protein kinase BRSK1 (Homo sapiens) (UniProt Q8TDC3); assay: BrSK1(h) Kinase panel; details: Compound concentration 1.0 uM, tested as the 2H-labelled form
[5] = biological target: Tyrosine-protein kinase BTK (Homo sapiens) (UniProt Q06187); assay: BTK(h) Kinase panel; details: Compound concentration 1.0 uM, tested as the 2H-labelled form
[6] = biological target: Serine/threonine-protein kinase B-raf (Homo sapiens) (UniProt P15056); assay: B-Raf(h) Kinase panel; details: Compound concentration 1.0 uM, tested as the 2H-labelled form
[7] = biological target: Calcium/calmodulin-dependent protein kinase kinase 2 (Homo sapiens) (UniProt Q96RR4); assay: CaMKK2(h) Kinase panel; details: Compound concentration 1.0 uM, tested as the 2H-labelled form
[8] = biological target: Cyclin-dependent kinase 5 (Homo sapiens) (UniProt Q00535); assay: CDK5/p25(h) Kinase panel; details: Compound concentration 1.0 uM, tested as the 2H-labelled form
[9] = biological target: Cyclin-dependent kinase 14 (Homo sapiens) (UniProt O94921); assay: CDK14/cyclinY(h) Kinase panel; details: Compound concentration 1.0 uM, tested as the 2H-labelled form
[10] = biological target: Cyclin-dependent kinase-like 1 (Homo sapiens) (UniProt Q00532); assay: CDKL1(h) Kinase panel; details: Compound concentration 1.0 uM, tested as the 2H-labelled form
[11] = biological target: Cyclin-dependent kinase-like 3 (Homo sapiens) (UniProt Q8IVW4); assay: CDKL3(h) Kinase panel; details: Compound concentration 1.0 uM, tested as the 2H-labelled form
[12] = biological target: Cyclin-dependent kinase-like 4 (Homo sapiens) (UniProt Q5MAI5); assay: CDKL4(h) Kinase panel; details: Compound concentration 1.0 uM, tested as the 2H-labelled form
[13] = biological target: Serine/threonine-protein kinase Chk1 (Homo sapiens) (UniProt O14757); assay: CHK1(h) Kinase panel; details: Compound concentration 1.0 uM, tested as the 2H-labelled form
[14] = biological target: Dual specificity protein kinase CLK3 (Homo sapiens) (UniProt P49761); assay: CLK3(h) Kinase panel; details: Compound concentration 1.0 uM, tested as the 2H-labelled form
[15] = biological target: Mast/stem cell growth factor receptor Kit (Homo sapiens) (UniProt P10721); assay: cKit(h) Kinase panel; details: Compound concentration 1.0 uM, tested as the 2H-labelled form
[16] = biological target: Epidermal growth factor receptor (Homo sapiens) (UniProt P00533); assay: EGFR(h) Kinase panel; details: Compound concentration 1.0 uM, tested as the 2H-labelled form
[17] = biological target: Receptor tyrosine-protein kinase erbB-4 (Homo sapiens) (UniProt Q15303); assay: ErbB4(h) Kinase panel; details: Compound concentration 1.0 uM, tested as the 2H-labelled form
[18] = biological target: Tyrosine-protein kinase Fer (Homo sapiens) (UniProt P16591); assay: Fer(h) Kinase panel; details: Compound concentration 1.0 uM, tested as the 2H-labelled form
[19] = biological target: Fibroblast growth factor receptor 1 (Homo sapiens) (UniProt P11362); assay: FGFR1(h) Kinase panel; details: Compound concentration 1.0 uM, tested as the 2H-labelled form
[20] = biological target: Vascular endothelial growth factor receptor 3 (Homo sapiens) (UniProt P35916); assay: Flt4(h) Kinase panel; details: Compound concentration 1.0 uM, tested as the 2H-labelled form
[21] = biological target: eIF-2-alpha kinase GCN2 (Homo sapiens) (UniProt Q9P2K8); assay: GCN2(h) Kinase panel; details: Compound concentration 1.0 uM, tested as the 2H-labelled form
[22] = biological target: Homeodomain-interacting protein kinase 1 (Homo sapiens) (UniProt Q86Z02); assay: HIPK1(h) Kinase panel; details: Compound concentration 1.0 uM, tested as the 2H-labelled form
[23] = biological target: Homeodomain-interacting protein kinase 4 (Homo sapiens) (UniProt Q8NE63); assay: HIPK4(h) Kinase panel; details: Compound concentration 1.0 uM, tested as the 2H-labelled form
[24] = biological target: Eukaryotic translation initiation factor 2-alpha kinase 1 (Homo sapiens) (UniProt Q9BQI3); assay: HRI(h) Kinase panel; details: Compound concentration 1.0 uM, tested as the 2H-labelled form
[25] = biological target: Tyrosine-protein kinase JAK1 (Homo sapiens) (UniProt P23458); assay: JAK1(h) Kinase panel; details: Compound concentration 1.0 uM, tested as the 2H-labelled form
[26] = biological target: Tyrosine-protein kinase JAK3 (Homo sapiens) (UniProt P52333); assay: JAK3(h) Kinase panel; details: Compound concentration 1.0 uM, tested as the 2H-labelled form
[27] = biological target: Leukocyte tyrosine kinase receptor (Homo sapiens) (UniProt P29376); assay: LTK(h) Kinase panel; details: Compound concentration 1.0 uM, tested as the 2H-labelled form
[28] = biological target: Mitogen-activated protein kinase kinase kinase kinase 4 (Homo sapiens) (UniProt O95819); assay: MAP4K4(h) Kinase panel; details: Compound concentration 1.0 uM, tested as the 2H-labelled form
[29] = biological target: Maternal embryonic leucine zipper kinase (Homo sapiens) (UniProt Q14680); assay: MELK(h) Kinase panel; details: Compound concentration 1.0 uM, tested as the 2H-labelled form
[30] = biological target: Myosin light chain kinase (Homo sapiens) (UniProt Q32MK0); assay: MLCK(h) Kinase panel; details: Compound concentration 1.0 uM, tested as the 2H-labelled form
[31] = biological target: FKBP12A/mTOR (Homo sapiens) (UniProt P62942+P42345); assay: mTOR/FKBP12(h) Kinase panel; type: protein-complex assay; details: Compound concentration 1.0 uM, tested as the 2H-labelled form
[32] = biological target: Serine/threonine-protein kinase Nek2 (Homo sapiens) (UniProt P51955); assay: NEK2(h) Kinase panel; details: Compound concentration 1.0 uM, tested as the 2H-labelled form
[33] = biological target: Serine/threonine-protein kinase Nek9 (Homo sapiens) (UniProt Q8TD19); assay: NEK9(h) Kinase panel; details: Compound concentration 1.0 uM, tested as the 2H-labelled form
[34] = biological target: NUAK family SNF1-like kinase 2 (Homo sapiens) (UniProt Q9H093); assay: NUAK2(h) Kinase panel; details: Compound concentration 1.0 uM, tested as the 2H-labelled form
[35] = biological target: Serine/threonine-protein kinase PAK 6 (Homo sapiens) (UniProt Q9NQU5); assay: PAK6(h) Kinase panel; details: Compound concentration 1.0 uM, tested as the 2H-labelled form
[36] = biological target: Serine/threonine-protein kinase MARK2 (Homo sapiens) (UniProt Q7KZI7); assay: PAR-1Balpha(h) Kinase panel; details: Compound concentration 1.0 uM, tested as the 2H-labelled form
[37] = biological target: Serine/threonine-protein kinase pim-2 (Homo sapiens) (UniProt Q9P1W9); assay: Pim-2(h) Kinase panel; details: Compound concentration 1.0 uM, tested as the 2H-labelled form
[38] = biological target: RAC-gamma serine/threonine-protein kinase (Homo sapiens) (UniProt Q9Y243); assay: PKBgamma (h) Kinase panel; details: Compound concentration 1.0 uM, tested as the 2H-labelled form
[39] = biological target: Protein kinase C zeta type (Homo sapiens) (UniProt Q05513); assay: PKCzeta(h) Kinase panel; details: Compound concentration 1.0 uM, tested as the 2H-labelled form
[40] = biological target: cAMP-dependent protein kinase catalytic subunit PRKX (Homo sapiens) (UniProt P51817); assay: PrKX(h) Kinase panel; details: Compound concentration 1.0 uM, tested as the 2H-labelled form
[41] = biological target: Macrophage-stimulating protein receptor (Homo sapiens) (UniProt Q04912); assay: Ron(h) Kinase panel; details: Compound concentration 1.0 uM, tested as the 2H-labelled form
[42] = biological target: Proto-oncogene tyrosine-protein kinase ROS (Homo sapiens) (UniProt P08922); assay: Ros(h) Kinase panel; details: Compound concentration 1.0 uM, tested as the 2H-labelled form
[43] = biological target: Tyrosine-protein kinase receptor TYRO3 (Homo sapiens) (UniProt Q06418); assay: Rse(h) Kinase panel; details: Compound concentration 1.0 uM, tested as the 2H-labelled form
[44] = biological target: Serine/threonine-protein kinase Sgk3 (Homo sapiens) (UniProt Q96BR1); assay: SGK3(h) Kinase panel; details: Compound concentration 1.0 uM, tested as the 2H-labelled form
[45] = biological target: Serine/threonine-protein kinase SIK3 (Homo sapiens) (UniProt Q9Y2K2); assay: SIK3(h) Kinase panel; details: Compound concentration 1.0 uM, tested as the 2H-labelled form
[46] = biological target: Tyrosine-protein kinase Srms (Homo sapiens) (UniProt Q9H3Y6); assay: SRMS(h) Kinase panel; details: Compound concentration 1.0 uM, tested as the 2H-labelled form
[47] = biological target: Tyrosine-protein kinase SYK (Homo sapiens) (UniProt P43405); assay: Syk(h) Kinase panel; details: Compound concentration 1.0 uM, tested as the 2H-labelled form
[48] = biological target: Serine/threonine-protein kinase TAO1 (Homo sapiens) (UniProt Q7L7X3); assay: TAO1(h) Kinase panel; details: Compound concentration 1.0 uM, tested as the 2H-labelled form
[49] = biological target: NT-3 growth factor receptor (Homo sapiens) (UniProt Q16288); assay: TrkC(h) Kinase panel; details: Compound concentration 1.0 uM, tested as the 2H-labelled form
[50] = biological target: Testis-specific serine/threonine-protein kinase 3 (Homo sapiens) (UniProt Q96PN8); assay: TSSK3(h) Kinase panel; details: Compound concentration 1.0 uM, tested as the 2H-labelled form
[51] = biological target: Tyrosine-protein kinase TXK (Homo sapiens) (UniProt P42681); assay: Txk(h) Kinase panel; details: Compound concentration 1.0 uM, tested as the 2H-labelled form
[52] = biological target: 5-hydroxytryptamine receptor 6 (Homo sapiens) (UniProt P50406); details: Compound concentration 10.0 uM, tested as the 2H-labelled form
[53] = biological target: Muscarinic acetylcholine receptor M5 (Homo sapiens) (UniProt P08912); details: Compound concentration 10.0 uM, tested as the 2H-labelled form

Measured: inhibition

Cyclin-dependent kinase-like 3 (Homo sapiens), sequence (Q8IVW4 whole entry, looked up): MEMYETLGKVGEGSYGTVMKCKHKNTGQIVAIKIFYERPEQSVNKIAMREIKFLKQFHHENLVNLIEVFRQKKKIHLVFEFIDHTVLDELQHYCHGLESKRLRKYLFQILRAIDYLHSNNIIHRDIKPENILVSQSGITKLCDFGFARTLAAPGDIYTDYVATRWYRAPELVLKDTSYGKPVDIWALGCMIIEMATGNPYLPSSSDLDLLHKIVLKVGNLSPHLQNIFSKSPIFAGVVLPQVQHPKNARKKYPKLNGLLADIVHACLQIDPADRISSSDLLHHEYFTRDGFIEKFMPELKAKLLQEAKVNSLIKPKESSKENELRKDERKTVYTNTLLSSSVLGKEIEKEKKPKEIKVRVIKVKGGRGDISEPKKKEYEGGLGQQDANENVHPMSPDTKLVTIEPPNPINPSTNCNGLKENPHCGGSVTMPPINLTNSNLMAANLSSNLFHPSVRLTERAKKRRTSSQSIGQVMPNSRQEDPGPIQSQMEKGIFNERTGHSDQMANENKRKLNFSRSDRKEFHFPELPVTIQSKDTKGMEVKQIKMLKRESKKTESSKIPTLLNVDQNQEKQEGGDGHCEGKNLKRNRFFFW
Tyrosine-protein kinase JAK1 (Homo sapiens), sequence (P23458 whole entry): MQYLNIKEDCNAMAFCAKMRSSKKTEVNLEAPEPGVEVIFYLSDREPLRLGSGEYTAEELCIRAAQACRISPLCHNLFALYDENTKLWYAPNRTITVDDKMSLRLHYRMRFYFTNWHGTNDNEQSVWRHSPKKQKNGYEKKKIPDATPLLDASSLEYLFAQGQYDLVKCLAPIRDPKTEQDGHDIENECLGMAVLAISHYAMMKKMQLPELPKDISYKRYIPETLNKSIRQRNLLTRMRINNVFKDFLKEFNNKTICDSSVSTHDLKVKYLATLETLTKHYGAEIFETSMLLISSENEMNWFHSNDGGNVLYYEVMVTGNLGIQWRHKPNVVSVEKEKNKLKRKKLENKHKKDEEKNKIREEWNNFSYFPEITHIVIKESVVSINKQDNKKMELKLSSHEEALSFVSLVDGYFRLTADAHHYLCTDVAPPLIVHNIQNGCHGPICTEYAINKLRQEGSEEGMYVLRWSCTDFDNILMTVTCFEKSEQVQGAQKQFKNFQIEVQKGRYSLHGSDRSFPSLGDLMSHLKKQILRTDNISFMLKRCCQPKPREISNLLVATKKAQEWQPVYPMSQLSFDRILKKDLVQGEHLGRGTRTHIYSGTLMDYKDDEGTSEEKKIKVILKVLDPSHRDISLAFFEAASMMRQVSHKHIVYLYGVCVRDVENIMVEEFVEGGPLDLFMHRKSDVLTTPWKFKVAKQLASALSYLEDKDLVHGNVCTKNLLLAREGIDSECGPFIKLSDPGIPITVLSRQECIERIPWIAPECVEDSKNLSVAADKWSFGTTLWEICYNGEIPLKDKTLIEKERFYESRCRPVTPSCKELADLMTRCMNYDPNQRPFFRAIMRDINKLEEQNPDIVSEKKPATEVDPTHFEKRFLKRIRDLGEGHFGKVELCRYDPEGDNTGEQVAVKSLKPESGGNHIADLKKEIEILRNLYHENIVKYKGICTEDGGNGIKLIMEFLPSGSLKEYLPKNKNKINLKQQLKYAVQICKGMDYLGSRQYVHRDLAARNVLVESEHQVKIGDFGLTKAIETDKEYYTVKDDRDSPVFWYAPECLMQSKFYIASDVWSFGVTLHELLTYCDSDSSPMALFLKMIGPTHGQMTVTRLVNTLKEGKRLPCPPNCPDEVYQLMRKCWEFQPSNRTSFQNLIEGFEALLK
Tyrosine-protein kinase receptor UFO (Homo sapiens), sequence (P30530 whole entry): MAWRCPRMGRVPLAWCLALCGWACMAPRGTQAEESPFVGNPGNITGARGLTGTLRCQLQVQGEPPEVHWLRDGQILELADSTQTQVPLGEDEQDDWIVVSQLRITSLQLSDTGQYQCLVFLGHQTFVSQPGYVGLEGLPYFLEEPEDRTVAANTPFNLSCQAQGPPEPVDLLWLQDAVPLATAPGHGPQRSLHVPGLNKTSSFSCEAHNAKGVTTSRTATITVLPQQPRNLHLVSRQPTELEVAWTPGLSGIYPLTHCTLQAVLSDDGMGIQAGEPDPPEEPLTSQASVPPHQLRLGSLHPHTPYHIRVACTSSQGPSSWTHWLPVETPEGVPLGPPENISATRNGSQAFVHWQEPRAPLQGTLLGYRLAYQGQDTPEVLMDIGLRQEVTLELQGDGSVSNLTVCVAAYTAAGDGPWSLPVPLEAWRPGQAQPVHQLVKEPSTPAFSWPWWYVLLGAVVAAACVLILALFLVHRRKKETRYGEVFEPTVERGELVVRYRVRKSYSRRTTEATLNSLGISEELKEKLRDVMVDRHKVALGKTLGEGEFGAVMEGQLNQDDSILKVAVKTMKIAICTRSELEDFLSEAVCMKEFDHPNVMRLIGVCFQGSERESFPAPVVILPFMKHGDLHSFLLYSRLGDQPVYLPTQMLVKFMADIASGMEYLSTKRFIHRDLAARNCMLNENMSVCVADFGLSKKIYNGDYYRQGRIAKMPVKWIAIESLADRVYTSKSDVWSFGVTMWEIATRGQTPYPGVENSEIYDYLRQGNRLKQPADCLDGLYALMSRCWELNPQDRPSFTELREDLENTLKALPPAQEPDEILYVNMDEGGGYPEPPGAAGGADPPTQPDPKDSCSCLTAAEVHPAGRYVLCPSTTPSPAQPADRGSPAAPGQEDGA
Serine/threonine-protein kinase Nek2 (Homo sapiens), sequence (P51955 whole entry): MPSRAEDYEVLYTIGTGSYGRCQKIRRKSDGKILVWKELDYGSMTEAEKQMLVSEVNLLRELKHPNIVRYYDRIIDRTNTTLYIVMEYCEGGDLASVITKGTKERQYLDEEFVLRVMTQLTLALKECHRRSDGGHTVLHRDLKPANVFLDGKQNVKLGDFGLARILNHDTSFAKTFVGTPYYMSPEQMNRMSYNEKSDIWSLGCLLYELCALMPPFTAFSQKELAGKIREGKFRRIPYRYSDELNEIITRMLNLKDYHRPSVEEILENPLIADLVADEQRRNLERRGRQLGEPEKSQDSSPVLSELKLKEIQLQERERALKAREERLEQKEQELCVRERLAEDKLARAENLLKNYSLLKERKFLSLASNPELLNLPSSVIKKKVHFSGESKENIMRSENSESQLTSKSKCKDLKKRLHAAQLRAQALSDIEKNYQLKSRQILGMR
Tyrosine-protein kinase Fer (Homo sapiens), sequence (P16591 whole entry, looked up): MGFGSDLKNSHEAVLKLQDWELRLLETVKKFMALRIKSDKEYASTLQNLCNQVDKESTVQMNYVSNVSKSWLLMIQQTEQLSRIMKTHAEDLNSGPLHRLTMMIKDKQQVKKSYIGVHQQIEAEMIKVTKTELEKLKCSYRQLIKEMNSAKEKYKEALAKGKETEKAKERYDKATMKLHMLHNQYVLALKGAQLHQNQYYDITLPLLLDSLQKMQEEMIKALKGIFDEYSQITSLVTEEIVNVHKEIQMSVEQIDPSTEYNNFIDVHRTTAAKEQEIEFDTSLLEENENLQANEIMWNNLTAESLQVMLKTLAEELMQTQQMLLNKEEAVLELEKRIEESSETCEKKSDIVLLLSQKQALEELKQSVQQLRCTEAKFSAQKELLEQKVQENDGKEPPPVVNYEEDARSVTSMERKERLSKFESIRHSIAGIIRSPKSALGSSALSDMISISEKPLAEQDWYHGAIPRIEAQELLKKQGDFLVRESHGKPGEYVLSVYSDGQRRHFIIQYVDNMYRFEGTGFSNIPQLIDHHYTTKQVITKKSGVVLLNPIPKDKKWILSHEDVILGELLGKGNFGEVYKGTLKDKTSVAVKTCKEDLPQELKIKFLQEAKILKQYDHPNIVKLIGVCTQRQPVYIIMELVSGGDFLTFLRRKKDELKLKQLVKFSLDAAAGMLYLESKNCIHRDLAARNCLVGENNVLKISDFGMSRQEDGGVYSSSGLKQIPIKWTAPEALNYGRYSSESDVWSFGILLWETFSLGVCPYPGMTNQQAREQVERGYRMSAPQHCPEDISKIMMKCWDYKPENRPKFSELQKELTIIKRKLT
Leukocyte tyrosine kinase receptor (Homo sapiens), sequence (P29376 whole entry): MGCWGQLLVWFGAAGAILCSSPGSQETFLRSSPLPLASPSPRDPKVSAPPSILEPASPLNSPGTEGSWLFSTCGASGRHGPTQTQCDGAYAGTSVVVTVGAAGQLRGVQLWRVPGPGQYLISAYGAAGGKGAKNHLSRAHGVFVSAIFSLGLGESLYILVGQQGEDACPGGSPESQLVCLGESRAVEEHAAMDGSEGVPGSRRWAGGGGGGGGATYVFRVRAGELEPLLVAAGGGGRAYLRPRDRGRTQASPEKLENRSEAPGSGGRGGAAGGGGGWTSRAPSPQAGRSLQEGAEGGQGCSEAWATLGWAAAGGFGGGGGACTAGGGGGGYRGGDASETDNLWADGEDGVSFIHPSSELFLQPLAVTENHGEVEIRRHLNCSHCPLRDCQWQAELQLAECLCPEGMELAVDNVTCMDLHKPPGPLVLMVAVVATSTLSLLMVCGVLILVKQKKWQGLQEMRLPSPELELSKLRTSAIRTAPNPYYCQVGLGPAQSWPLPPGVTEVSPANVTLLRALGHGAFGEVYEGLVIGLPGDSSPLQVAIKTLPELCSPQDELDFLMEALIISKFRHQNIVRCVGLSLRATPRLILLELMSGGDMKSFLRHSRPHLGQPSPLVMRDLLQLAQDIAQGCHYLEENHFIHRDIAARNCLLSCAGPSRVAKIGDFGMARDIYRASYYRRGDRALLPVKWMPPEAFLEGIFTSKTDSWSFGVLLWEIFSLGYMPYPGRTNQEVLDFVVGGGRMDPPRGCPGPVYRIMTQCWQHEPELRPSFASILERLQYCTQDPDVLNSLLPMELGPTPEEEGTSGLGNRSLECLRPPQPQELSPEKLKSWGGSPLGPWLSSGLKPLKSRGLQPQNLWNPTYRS
Cyclin-dependent kinase 5 (Homo sapiens), sequence (Q00535 whole entry, looked up): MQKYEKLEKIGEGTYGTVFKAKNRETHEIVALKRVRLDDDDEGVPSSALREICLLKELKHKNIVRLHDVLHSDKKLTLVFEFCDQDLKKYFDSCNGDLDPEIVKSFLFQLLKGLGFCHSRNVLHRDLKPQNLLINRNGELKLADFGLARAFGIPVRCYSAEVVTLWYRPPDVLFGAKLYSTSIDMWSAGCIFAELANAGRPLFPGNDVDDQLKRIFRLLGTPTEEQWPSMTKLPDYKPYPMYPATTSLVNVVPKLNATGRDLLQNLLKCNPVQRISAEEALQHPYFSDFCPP

CC1(C)Cn2nc(-c3ccc(F)cn3)c(-c3ccnc4[nH]ncc34)c2CO1
inactive: [1] -6% | [2] -10% | [3] 16% | [4] 13% | [5] -4% | [6] 16% | [7] -9% | [8] 20% | [9] 9% | [10] 11% | [11] -7% | [12] 9% | [13] -6% | [14] -9% | [15] -6% | [16] -8% | [17] 19% | [18] 20% | [19] 5% | [20] 7% | [21] -6% | [22] 3% | [23] 8% | [24] -6% | [25] -2% | [26] 0% | [27] 13% | [28] 21% | [29] 9% | [30] 19% | [31] 5% | [32] 6% | [33] 6% | [34] -1% | [35] 5% | [36] 15% | [37] -4% | [38] 18% | [39] 5% | [40] 0% | [41] 13% | [42] -2% | [43] 9% | [44] 4% | [45] -1% | [46] 6% | [47] -8% | [48] -5% | [49] 23% | [50] 2% | [51] 16% | [52] -1.55% | [53] -5.3%
